Where a name gives a salt, the structure may show the parent alone.
Key:
[1] = test system: rat model with cerebral ischemia; conditions: Le Peillet et al., Brain Research, 571, 115, 1992; cited from earlier work
AMPA receptor = experiment: Inhibitory action on AMPA-inducing inflow of calcium into nerve cells (Fura2-AM); assay type: cell-based; conditions: rat cerebral cortex nerve cells on astrocytes, 1 μM MK-801, stimulated by 2 μM AMPA, fluorescence 340/380 nm
[2] = test system: experimental animal model with cerebral ischemia; conditions: Sheardown et al., Science, 247, 571, 1990; cited from earlier work

| SMILES | nerve-protecting action in rat model with cerebral ischemia [1] | IC50 (AMPA receptor) [µM] | effect in experimental animal model with cerebral ischemia [2] |
| --- | --- | --- | --- |
| CC1=NN=C(c2ccc(N)cc2)c2cc3c(cc2C1)OCO3 [GYKI 52466, 1-(amino-phenyl)-4-methyl-7,8-methylenedioxy-5H-2,3-benzoazepine hydrochloride, reference compound] | exerts a nerve-protecting action | 9.02 | – |
| NS(=O)(=O)c1cccc2c1c([N+](=O)[O-])cc1nc(O)c(O)nc12 [NBQX, 2,3-dihydroxy-6-nitro-7-sulfamoyl-benzo[f-]quinoxaline] | – | – | effective |

— patent US6825192B1, “Heterodiazinone derivatives” (Eisai Co., Ltd., priority 1999, dated 2004)
